In data set [1] the test system is isolated myocardium of guinea-pigs (right ventricular papillary muscles). Kind of data set: Effects on the action potential duration in the isolated myocardium of guinea-pigs. Details: species or system guinea-pig (male, Hartley strain). The note with it: Cavia porcellus, 10 min; for activation at 10 µM / activation at 1 µM: read-out: APD90 prolongation; for inhibition at 10 µM / inhibition at 1 µM: read-out: Vmax inhibition.
Experimental: Right ventricular papillary muscles were isolated from male guinea-pigs of Hartley strain weighing 300 to 400 g and fixed at the bottom of an acrylic bath with pins. […] The muscles were stimulated at 1 Hz with rectangular pulses of 1 msec duration and supramaximal voltage. Action potentials were recorded using conventional glass microelectrodes filled with 3M KCl. The duration of the action potential and the maximum velocity of the upstroke of the action potential (Vmax) were determined. Each of the test compounds was included in Tyrode solution at 10^-6 or 10^-5 M and perfused.
Sotalol, a beta-adrenoceptor antagonist was employed as the reference drug because this compound is known to prolong the duration of the myocardial action potential.

In data set [2] the test system is anesthetized dogs (QTc-interval of ECG). The data set is described as follows: Effects of QTc-interval of ECG in anesthetized dogs. The class given is in vivo, Mongrel dogs. Particulars: forearm vein; for change in vivo at 1 mg/kg: 1 mg/kg (1.0 mg/kg).
The next data set can be described thus: in vivo. Particulars: mouse, iv. The procedure: Male ddy mice weighing 20 to 30 g were used for the acute toxicity test. LD50 values were calculated by the up-and-down method. […] The dose to be administered was determined on the basis of the volume of the stock solution. The solutions were injected into a tail vein by means of a 1-ml tuberculin syringe. The judgement of survival or death was made 30 min after each injection.

[3] abbreviates: 10^-5 M, another 10 min after 10^-6 M, 1 Hz, 37° C.
Where [4] appears, read: 10^-6 M, first 10 min, 1 Hz, 37° C.
The mark [5] stands for this setting: Canis lupus familiaris, iv, 0.1 mg/kg, enflurane anesthesia, read-out: prolongation of QTc-interval.
Setting [6] is: Canis lupus familiaris, iv, enflurane anesthesia, read-out: prolongation of QTc-interval.

The structures appear in SMILES notation. Structures can show the parent of a compound that is named as a salt. Where two headings read alike, the source gives them in different places.

Broadly, the inhibition is how much of the control response was suppressed. A word on the LD50: it is the dose expected to kill half of the subjects tested. On to `CS(=O)(=O)Nc1ccc(C(=O)C2CCN(CCc3ccccc3)CC2)cc1.Cl` [Compound B, 4-(4-methylsulfonylaminobenzoyl)-1-(2-phenylethyl)piperidine hydrochloride], for which, in data set [1] (setting [3]), the activation at 10 µM came out at 34% and the inhibition at 10 µM was 19%. In addition, in data set [1] (setting [4]), the activation at 1 µM was 26% and the inhibition at 1 µM turned out to be 0%. The same compound registered a QTc-interval after compound in data set [2] (0.1 mg/kg, from 435 msec before) of 665 ms. Besides, in data set [2] (setting [5]), the change in vivo at 0.1 mg/kg worked out at 51%. This compound also returned an LD50 at 0.5 h in the data set “in vivo” of 100 mg/kg.

Take `CS(=O)(=O)Nc1ccc(C(=O)C2CCN(CCCc3ccncc3)CC2)cc1.Cl.Cl` [Compound R, 4-(4-methylsulfonylaminobenzoyl)-1-(3-(4-pyridyl)propyl)piperidine dihydrochloride]: in data set [1] (setting [3]), the activation at 10 µM was determined as 27% and the inhibition at 10 µM came out at 0%. Besides, in data set [1] (setting [4]), the activation at 1 µM turned out to be 18% and the inhibition at 1 µM is 0%. The change in vivo at 0.03 mg/kg in data set [2] (Canis lupus familiaris, iv, 0.03 mg/kg, enflurane anesthesia, read-out: prolongation of QTc-interval) came out at 13%. In data set [2] (setting [5]), the change in vivo at 0.1 mg/kg turned out to be 21%. In the data set “in vivo”, this compound had an LD50 at 0.5 h of 138 mg/kg.

Take `CS(=O)(=O)Nc1ccc(C(=O)C2CCN(CCc3cccnc3)CC2)cc1` [Compound I, 4-(4-methylsulfonylaminobenzoyl)-1-[2-(3-pyridyl)ethyl]piperidine dihydrochloride]: in data set [1] (setting [3]), the activation at 10 µM was determined as 17% and the inhibition at 10 µM amounted to 0%. Also, in data set [1] (setting [4]), the activation at 1 µM amounted to 10% and the inhibition at 1 µM was 0%.

Take `CS(=O)(=O)Nc1ccc(C(=O)C2CCN(C(=O)c3ccc(NS(C)(=O)=O)cc3)CC2)cc1` [Compound D, 1,4-di(4-methylsulfonylaminobenzoyl)piperidine hydrochloride]: in data set [1] (setting [3]), the activation at 10 µM came to 10% and the inhibition at 10 µM was 0%. In data set [1] (setting [4]), the activation at 1 µM was 3% and the inhibition at 1 µM stood at 0%.

As for `CS(=O)(=O)Nc1ccc(C(=O)C2CCN(Cc3cnc4ccccc4c3)CC2)cc1.Cl.Cl` [Compound M, 4-(4-methylsulfonylaminobenzoyl)-1-(3-quinolylmethyl)piperidine dihydrochloride], in data set [1] (setting [3]), the activation at 10 µM is 5% and the inhibition at 10 µM is 0%. Also, in data set [1] (setting [4]), the activation at 1 µM was found to be 3% and the inhibition at 1 µM turned out to be 0%. For the same compound, the change in vivo at 0.1 mg/kg in data set [2] (setting [5]) amounted to 7%. In addition, in data set [2] (setting [6]), the change in vivo at 0.3 mg/kg amounted to 13% and the change in vivo at 1 mg/kg is 21%. The compound also gave a 50% lethal dose (LD50) at 0.5 h in “in vivo” of 112 mg/kg.

Consider `CS(=O)(=O)Nc1ccc(C(=O)C2CCN(Cc3ccc4ccccc4n3)CC2)cc1.Cl.Cl` [Compound L, 4-(4-methylsulfonylaminobenzoyl)-1-(2-quinolylmethyl)piperidine dihydrochloride], for which, in data set [1] (setting [3]), the activation at 10 µM was found to be 26% and the inhibition at 10 µM was determined as 2%. Besides, in data set [1] (setting [4]), the activation at 1 µM was found to be 18% and the inhibition at 1 µM amounted to 0%. Moreover, the change in vivo at 0.1 mg/kg in data set [2] (setting [5]) worked out at 31%. Besides, in data set [2] (setting [6]), the change in vivo at 0.3 mg/kg came to 56%. The same compound showed an LD50 at 0.5 h in the data set “in vivo” of 112 mg/kg.

As for `CS(=O)(=O)Nc1ccc(C(=O)C2CCN(CCc3ccc(Cl)cc3)CC2)cc1` [Compound C, 1-[2-(4-chlorophenyl)ethyl]-4-(4-methylsulfonylaminobenzoyl)piperidine hydrochloride], in data set [1] (setting [3]), the activation at 10 µM was determined as 15% and the inhibition at 10 µM turned out to be 0%. Also, in data set [1] (setting [4]), the activation at 1 µM was 7% and the inhibition at 1 µM is 0%.

As to `CCN1CCC(C(=O)c2ccc(NS(C)(=O)=O)cc2)CC1` [Compound P, 1-ethyl-4-(4-methylsulfonylaminobenzoyl)piperidine hydrochloride], in data set [1] (setting [3]), the activation at 10 µM amounted to 23% and the inhibition at 10 µM was 2%. In addition, in data set [1] (setting [4]), the activation at 1 µM was found to be 7% and the inhibition at 1 µM is 0%. Moreover, the change in vivo at 0.1 mg/kg in data set [2] (setting [5]) was 7%. Also, the change in vivo at 0.3 mg/kg in data set [2] (setting [6]) was 14%.

Take `CC(C)NCC(O)c1ccc(NS(C)(=O)=O)cc1` (centres unmarked) [Sotalol, reference compound]: in data set [1] (setting [3]), the activation at 10 µM was determined as 7% and the inhibition at 10 µM amounted to 0%. In addition, in data set [1] (setting [4]), the activation at 1 µM is 0% and the inhibition at 1 µM came to 0%. Further, in data set [2] (setting [6]), the change in vivo at 1 mg/kg was determined as 12%. The same compound displayed an LD50 at 0.5 h in “in vivo” of 113 mg/kg.

As for `CS(=O)(=O)Nc1ccc(C(=O)C2CCN(CCc3ccccn3)CC2)cc1` [Compound H, 4-(4-methylsulfonylaminobenzoyl)-1-[2-(2-pyridyl)ethyl]piperidine dihydrochloride], in data set [1] (setting [3]), the activation at 10 µM was 5% and the inhibition at 10 µM is 0%. In data set [1] (setting [4]), the activation at 1 µM came out at 2% and the inhibition at 1 µM amounted to 0%.

As for `CS(=O)(=O)Nc1ccc(C(=O)C2CCN(Cc3ccc4nccn4c3)CC2)cc1` [Compound Q, 1-(6-imidazo[1,2-a]pyridylmethyl)-4-(4-methylsulfonylaminobenzoyl)piperidine dihydrochloride], in data set [1] (setting [3]), the activation at 10 µM came out at 23% and the inhibition at 10 µM was 0%. Moreover, in data set [1] (setting [4]), the activation at 1 µM worked out at 4% and the inhibition at 1 µM worked out at 0%.

With `COc1ccc(CCN2CCC(C(=O)c3ccc(NS(C)(=O)=O)cc3)CC2)cc1OC` [Compound E, 1-[2-(3,4-dimethoxyphenyl)ethyl]-4-(4-methylsulfonylaminobenzoyl)piperidine hydrochloride], in data set [1] (setting [3]), the activation at 10 µM came out at 14% and the inhibition at 10 µM stood at 0%. Besides, in data set [1] (setting [4]), the activation at 1 µM came to 12% and the inhibition at 1 µM turned out to be 0%.

`CS(=O)(=O)Nc1ccc(C(=O)C2CCN(CCc3cccs3)CC2)cc1.CS(=O)(=O)O` [Compound F, 4-(4-methylsulfonylaminobenzoyl)-1-[2-(2-thienyl)ethyl]piperidine methylsulfonate]: in data set [1] (setting [3]), the activation at 10 µM was found to be 11% and the inhibition at 10 µM stood at 0%. Further, in data set [1] (setting [4]), the activation at 1 µM came out at 8% and the inhibition at 1 µM turned out to be 0%. Moreover, the LD50 at 0.5 h in “in vivo” was determined as 112 mg/kg.

`CS(=O)(=O)Nc1ccc(C(=O)C2CCN(CCc3ccncc3)CC2)cc1.Cl.Cl` [Compound J, 4-(4-methylsulfonylaminobenzoyl)-1-[2-(4-pyridyl)ethyl]piperidine dihydrochloride]: in data set [1] (setting [3]), the activation at 10 µM was found to be 10% and the inhibition at 10 µM was 0%. Further, in data set [1] (setting [4]), the activation at 1 µM came to 4% and the inhibition at 1 µM came out at 0%. Further, in data set [2] (setting [5]), the change in vivo at 0.1 mg/kg was determined as 21%. For the same compound, in data set [2] (setting [6]), the change in vivo at 0.3 mg/kg is 42%. Besides, in “in vivo”, the LD50 at 0.5 h is 195 mg/kg.

For the compound `Cc1cccc(CCN2CCC(C(=O)c3ccc(NS(C)(=O)=O)cc3)CC2)n1` [Compound S, 1-(2-(6-methyl-2-pyridyl)ethyl)-4-(4-methylsulfonylaminobenzoyl)piperidinedihydrochloride], in data set [1], the activation at 1 µM was 20%, the activation at 10 µM was 30%, the inhibition at 1 µM stood at 0% and the inhibition at 10 µM worked out at 0%.

As to `CS(=O)(=O)Nc1ccc(C(=O)C2CCN(CC(=O)c3cnc4ccccn34)CC2)cc1.Cl.Cl` [Compound N, 1-[2-(3-imidazo[1,2-a]pyridyl)-2-oxo-ethyl]-4-(4-methylsulfonylaminobenzoyl)piperidine dihydrochloride], in data set [1] (setting [3]), the activation at 10 µM is 8% and the inhibition at 10 µM is 0%. In addition, in data set [1] (setting [4]), the activation at 1 µM turned out to be 8% and the inhibition at 1 µM was determined as 0%. The compound also gave an LD50 at 0.5 h in the data set “in vivo” of 224 mg/kg.

As to `CS(=O)(=O)Nc1ccc(C(=O)C2CCN(Cc3ccncc3)CC2)cc1.Cl.Cl` [Compound G, 4-(4-methylsulfonylaminobenzoyl)-1-(4-pyridyl)methylpiperidine dihydrochloride], in data set [1] (setting [3]), the activation at 10 µM is 33% and the inhibition at 10 µM is 0%. Moreover, in data set [1] (setting [4]), the activation at 1 µM is 18% and the inhibition at 1 µM turned out to be 0%. The change in vivo at 0.1 mg/kg in data set [2] (setting [5]) was found to be 17%. In data set [2] (setting [6]), the change in vivo at 0.3 mg/kg was determined as 27% and the change in vivo at 1 mg/kg amounted to 35%. In “in vivo”, the LD50 at 0.5 h came out at 108 mg/kg.

On to `CS(=O)(=O)Nc1ccc(C(=O)C2CCN(Cc3cn4ccccc4n3)CC2)cc1` [Compound O, 1-(1-imidazo[1,2-a]pyridylmethyl)-4-(4-methylsulfonylaminobenzoyl)piperidine dihydrochloride], for which, in data set [1] (setting [3]), the activation at 10 µM worked out at 12% and the inhibition at 10 µM was 5%. Also, in data set [1] (setting [4]), the activation at 1 µM was found to be 6% and the inhibition at 1 µM was determined as 0%. For the same compound, the median lethal dose (LD50) at 0.5 h in the data set “in vivo” was found to be 302 mg/kg.

Take `CS(=O)(=O)Nc1ccc(C(=O)C2CCN(Cc3ccccc3)CC2)cc1` [Compound A, 1-benzyl-4-(4-methylsulfonylaminobenzoyl)piperidine hydrochloride]: in data set [1] (setting [3]), the activation at 10 µM was found to be 7% and the inhibition at 10 µM turned out to be 0%. In addition, in data set [1] (setting [4]), the activation at 1 µM is 0% and the inhibition at 1 µM came to 0%.

In the case of `CS(=O)(=O)Nc1ccc(C(=O)C2CCN(C(=O)c3cccnc3)CC2)cc1` [Compound K, 4-(4-methylsulfonylaminobenzoyl)-1-nicotinoylpiperidine], in data set [1] (setting [3]), the activation at 10 µM was 24% and the inhibition at 10 µM came out at 14%. Moreover, in data set [1] (setting [4]), the activation at 1 µM amounted to 9% and the inhibition at 1 µM was 0%.

(Values after patent US4876262A, “Piperidine derivative and pharmaceutical composition containing the same” (Eisai Co., Ltd., priority 1986, dated 1989).)
